Measured values as given in the kinase profiling compilation of Christmann-Franck et al. (2016).

Key:
Experiment in all cases: radiometric filter-binding kinase assay, Kinase HotSpot
Settings in all cases: compound 0.5 µM; ATP 10 µM
PBK (human) = PBK (human) (UniProt Q96KB5)
[1] = molecular target: TYK2 JH1 catalytic (human) (UniProt P29597)
JAK2 JH1 JH2 (human) = JAK2 JH1 JH2 (human) (UniProt O60674)
MAPK12 (human) = MAPK12 (human) (UniProt P53778)
PTK2 (human) = PTK2 (human) (UniProt Q05397)
KIT (human) = KIT (human) (UniProt P10721)
PKN2 (human) = PKN2 (human) (UniProt Q16513)
FLT3 (human) = FLT3 (human) (UniProt P36888)
PIM2 (human) = PIM2 (human) (UniProt Q9P1W9)
MAPKAPK3 (human) = MAPKAPK3 (human) (UniProt Q16644)
CAMK2G (human) = CAMK2G (human) (UniProt Q13555)
DCLK2 (human) = DCLK2 (human) (UniProt Q8N568)
MARK2 (human) = MARK2 (human) (UniProt Q7KZI7)
MARK4 (human) = MARK4 (human) (UniProt Q96L34)
DAPK1 (human) = DAPK1 (human) (UniProt P53355)
AKT1 (human) = AKT1 (human) (UniProt P31749)
SRPK3 (human) = SRPK3 (human) (UniProt Q9UPE1)
BLK (human) = BLK (human) (UniProt P51451)
DMPK (human) = DMPK (human) (UniProt Q09013)
STK3 (human) = STK3 (human) (UniProt Q13188)
PLK2 (human) = PLK2 (human) (UniProt Q9NYY3)
GSK3A (human) = GSK3A (human) (UniProt P49840)
WNK2 (human) = WNK2 (human) (UniProt Q9Y3S1)
FES (human) = FES (human) (UniProt P07332)
CSNK1G2 (human) = CSNK1G2 (human) (UniProt P78368)
PDGFRA (human) = PDGFRA (human) (UniProt P16234)
PIM1 (human) = PIM1 (human) (UniProt P11309)
SGK2 (human) = SGK2 (human) (UniProt Q9HBY8)
CDC42BPB (human) = CDC42BPB (human) (UniProt Q9Y5S2)
CAMK2A (human) = CAMK2A (human) (UniProt Q9UQM7)
RIPK2 (human) = RIPK2 (human) (UniProt O43353)
PIM3 (human) = PIM3 (human) (UniProt Q86V86)
WEE1 (human) = WEE1 (human) (UniProt P30291)
HIPK3 (human) = HIPK3 (human) (UniProt Q9H422)
MAP3K10 (human) = MAP3K10 (human) (UniProt Q02779)
PRKCG (human) = PRKCG (human) (UniProt P05129)
OXSR1 (human) = OXSR1 (human) (UniProt O95747)
CDK3 CCNE1 (human) = CDK3 CCNE1 (human) (UniProt Q00526+P24864)
LTK (human) = LTK (human) (UniProt P29376)
PNCK (human) = PNCK (human) (UniProt Q6P2M8)
[2] = test system: SGK1 (human), O00141 [S422D]
KDR (human) = KDR (human) (UniProt P35968)

DAPK1 (human), sequence (P53355 whole entry, looked up): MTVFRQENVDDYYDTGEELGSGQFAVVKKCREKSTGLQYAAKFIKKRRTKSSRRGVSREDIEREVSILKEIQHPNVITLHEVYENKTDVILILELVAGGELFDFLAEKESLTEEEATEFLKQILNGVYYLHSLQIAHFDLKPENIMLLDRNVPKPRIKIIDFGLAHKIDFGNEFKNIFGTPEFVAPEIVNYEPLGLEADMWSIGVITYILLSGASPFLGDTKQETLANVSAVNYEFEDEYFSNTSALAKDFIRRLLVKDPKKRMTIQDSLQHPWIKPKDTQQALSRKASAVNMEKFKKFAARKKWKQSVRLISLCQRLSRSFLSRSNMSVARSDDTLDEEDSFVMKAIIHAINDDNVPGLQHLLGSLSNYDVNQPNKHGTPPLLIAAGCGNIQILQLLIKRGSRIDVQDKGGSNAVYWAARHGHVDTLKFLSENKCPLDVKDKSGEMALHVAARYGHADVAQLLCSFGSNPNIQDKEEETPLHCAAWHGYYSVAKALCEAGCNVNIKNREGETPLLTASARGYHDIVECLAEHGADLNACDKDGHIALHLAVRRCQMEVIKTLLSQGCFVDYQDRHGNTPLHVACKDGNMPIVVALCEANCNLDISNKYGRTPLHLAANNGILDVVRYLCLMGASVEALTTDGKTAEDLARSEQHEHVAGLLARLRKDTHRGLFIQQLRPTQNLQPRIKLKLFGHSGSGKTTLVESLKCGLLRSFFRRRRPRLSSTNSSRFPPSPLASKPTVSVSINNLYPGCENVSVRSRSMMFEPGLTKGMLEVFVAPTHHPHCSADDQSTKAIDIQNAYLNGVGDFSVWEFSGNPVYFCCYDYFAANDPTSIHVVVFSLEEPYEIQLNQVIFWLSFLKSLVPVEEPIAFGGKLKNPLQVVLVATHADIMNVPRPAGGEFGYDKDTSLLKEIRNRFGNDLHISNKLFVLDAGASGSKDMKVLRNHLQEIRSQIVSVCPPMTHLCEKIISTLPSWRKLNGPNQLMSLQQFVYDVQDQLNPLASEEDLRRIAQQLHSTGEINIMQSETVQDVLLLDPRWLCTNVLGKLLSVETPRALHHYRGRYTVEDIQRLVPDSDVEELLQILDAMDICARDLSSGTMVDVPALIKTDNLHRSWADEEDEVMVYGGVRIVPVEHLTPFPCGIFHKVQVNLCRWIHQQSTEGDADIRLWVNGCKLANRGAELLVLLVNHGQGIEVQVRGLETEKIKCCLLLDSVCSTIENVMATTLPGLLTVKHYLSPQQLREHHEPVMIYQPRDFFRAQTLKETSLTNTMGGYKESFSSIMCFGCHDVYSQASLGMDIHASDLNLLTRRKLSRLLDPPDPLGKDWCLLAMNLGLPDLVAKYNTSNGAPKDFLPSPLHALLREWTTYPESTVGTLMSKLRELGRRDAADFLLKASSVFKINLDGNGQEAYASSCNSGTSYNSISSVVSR
PIM2 (human), sequence (Q9P1W9 whole entry, looked up): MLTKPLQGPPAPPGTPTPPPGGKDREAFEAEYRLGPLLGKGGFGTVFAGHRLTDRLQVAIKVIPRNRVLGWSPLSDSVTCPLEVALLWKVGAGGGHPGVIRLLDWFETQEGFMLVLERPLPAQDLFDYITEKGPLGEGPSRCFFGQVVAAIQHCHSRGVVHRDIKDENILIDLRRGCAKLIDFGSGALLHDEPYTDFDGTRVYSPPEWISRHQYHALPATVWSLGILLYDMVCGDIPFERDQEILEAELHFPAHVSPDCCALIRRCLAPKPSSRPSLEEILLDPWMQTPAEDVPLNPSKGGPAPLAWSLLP
CDC42BPB (human), sequence (Q9Y5S2 whole entry, looked up): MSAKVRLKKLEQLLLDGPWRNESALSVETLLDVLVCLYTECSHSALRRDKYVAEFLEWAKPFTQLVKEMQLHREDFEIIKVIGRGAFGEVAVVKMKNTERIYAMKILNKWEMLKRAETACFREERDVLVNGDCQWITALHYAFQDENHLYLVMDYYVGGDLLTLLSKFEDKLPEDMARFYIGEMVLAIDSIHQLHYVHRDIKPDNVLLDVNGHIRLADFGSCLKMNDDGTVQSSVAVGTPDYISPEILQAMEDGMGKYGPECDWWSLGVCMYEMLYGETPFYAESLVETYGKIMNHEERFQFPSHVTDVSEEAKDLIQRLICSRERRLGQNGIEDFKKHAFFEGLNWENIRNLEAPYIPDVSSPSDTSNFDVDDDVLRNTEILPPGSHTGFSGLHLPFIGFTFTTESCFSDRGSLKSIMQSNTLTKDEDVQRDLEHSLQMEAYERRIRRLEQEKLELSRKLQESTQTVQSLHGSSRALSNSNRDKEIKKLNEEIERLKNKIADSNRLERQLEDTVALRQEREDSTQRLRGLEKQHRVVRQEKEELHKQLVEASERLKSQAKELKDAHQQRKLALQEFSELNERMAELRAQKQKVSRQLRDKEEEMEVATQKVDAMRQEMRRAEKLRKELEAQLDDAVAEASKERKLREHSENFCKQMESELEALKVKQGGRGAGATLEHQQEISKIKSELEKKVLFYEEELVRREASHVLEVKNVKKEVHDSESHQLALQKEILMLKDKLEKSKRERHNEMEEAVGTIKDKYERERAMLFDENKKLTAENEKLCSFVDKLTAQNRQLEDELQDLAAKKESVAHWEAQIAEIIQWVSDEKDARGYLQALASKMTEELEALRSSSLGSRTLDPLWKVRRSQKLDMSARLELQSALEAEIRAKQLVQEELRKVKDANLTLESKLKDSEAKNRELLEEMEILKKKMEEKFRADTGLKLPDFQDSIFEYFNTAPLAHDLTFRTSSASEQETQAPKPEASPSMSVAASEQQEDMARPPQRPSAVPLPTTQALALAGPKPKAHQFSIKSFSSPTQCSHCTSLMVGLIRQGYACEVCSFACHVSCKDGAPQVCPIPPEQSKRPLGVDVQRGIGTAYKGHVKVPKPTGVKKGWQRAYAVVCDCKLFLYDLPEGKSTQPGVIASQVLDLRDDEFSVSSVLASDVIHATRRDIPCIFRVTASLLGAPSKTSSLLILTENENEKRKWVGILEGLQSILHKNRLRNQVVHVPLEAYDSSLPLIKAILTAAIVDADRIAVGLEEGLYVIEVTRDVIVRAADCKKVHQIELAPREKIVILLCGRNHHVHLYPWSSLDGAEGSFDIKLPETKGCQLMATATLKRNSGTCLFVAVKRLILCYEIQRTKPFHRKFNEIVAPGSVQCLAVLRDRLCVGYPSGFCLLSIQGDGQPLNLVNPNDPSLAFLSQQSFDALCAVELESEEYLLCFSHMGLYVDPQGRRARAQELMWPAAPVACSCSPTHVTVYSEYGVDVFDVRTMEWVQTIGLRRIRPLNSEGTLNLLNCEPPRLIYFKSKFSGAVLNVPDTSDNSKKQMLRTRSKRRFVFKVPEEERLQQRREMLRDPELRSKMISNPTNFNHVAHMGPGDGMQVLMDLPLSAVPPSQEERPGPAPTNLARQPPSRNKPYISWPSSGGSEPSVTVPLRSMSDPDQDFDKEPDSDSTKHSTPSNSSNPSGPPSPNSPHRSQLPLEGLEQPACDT
FLT3 (human), sequence (P36888 whole entry, looked up): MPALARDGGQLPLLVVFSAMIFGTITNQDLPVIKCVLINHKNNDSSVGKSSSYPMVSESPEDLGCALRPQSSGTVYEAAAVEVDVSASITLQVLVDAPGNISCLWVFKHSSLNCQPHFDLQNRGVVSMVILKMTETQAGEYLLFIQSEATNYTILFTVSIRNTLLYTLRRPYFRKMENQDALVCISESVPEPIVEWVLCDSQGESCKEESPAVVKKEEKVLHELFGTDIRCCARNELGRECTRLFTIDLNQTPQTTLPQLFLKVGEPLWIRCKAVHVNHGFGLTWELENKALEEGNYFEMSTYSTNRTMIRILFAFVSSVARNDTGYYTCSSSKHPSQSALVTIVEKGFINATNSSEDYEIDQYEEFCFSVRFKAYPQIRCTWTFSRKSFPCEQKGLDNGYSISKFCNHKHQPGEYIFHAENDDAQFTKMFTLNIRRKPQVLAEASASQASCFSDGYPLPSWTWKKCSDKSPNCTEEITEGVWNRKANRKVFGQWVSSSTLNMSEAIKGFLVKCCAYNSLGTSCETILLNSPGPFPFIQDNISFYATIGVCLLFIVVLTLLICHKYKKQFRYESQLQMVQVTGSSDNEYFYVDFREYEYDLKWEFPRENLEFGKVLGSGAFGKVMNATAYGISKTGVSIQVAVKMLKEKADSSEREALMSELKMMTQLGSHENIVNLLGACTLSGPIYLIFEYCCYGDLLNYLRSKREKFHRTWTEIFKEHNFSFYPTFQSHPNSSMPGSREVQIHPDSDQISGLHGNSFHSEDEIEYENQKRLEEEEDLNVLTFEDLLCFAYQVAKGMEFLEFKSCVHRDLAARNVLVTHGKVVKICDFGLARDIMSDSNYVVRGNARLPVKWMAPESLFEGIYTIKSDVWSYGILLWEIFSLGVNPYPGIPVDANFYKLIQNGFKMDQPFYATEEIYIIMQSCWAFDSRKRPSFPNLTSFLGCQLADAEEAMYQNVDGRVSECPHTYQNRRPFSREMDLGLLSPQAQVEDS
SGK1 (human), O00141 [S422D], sequence (O00141 whole entry S422D, looked up): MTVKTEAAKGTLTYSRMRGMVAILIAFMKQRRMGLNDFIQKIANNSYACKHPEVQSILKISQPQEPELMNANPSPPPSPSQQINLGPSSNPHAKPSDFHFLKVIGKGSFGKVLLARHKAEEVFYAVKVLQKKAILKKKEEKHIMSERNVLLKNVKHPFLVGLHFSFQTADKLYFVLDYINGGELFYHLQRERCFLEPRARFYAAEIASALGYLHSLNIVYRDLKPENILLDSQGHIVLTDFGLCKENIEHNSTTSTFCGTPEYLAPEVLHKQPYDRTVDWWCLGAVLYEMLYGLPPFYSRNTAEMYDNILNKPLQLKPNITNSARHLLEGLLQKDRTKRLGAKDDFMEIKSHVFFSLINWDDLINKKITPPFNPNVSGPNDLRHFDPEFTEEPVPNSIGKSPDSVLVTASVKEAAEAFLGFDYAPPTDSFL

With `COc1cccc(-c2cc(=O)c3ccccc3o2)c1N` the residual activity (PBK (human)) was 97.6%, the residual activity [1] was 92.7% and the residual activity (JAK2 JH1 JH2 (human)) was 104%. The residual activity (MAPK12 (human)) was 95.5%, the residual activity (PTK2 (human)) was 98.2% and the residual activity (KIT (human)) was 92.2%. The residual activity (PKN2 (human)) was 81%, the residual activity (FLT3 (human)) was 96.3% and the residual activity (PIM2 (human)) was 99.3%. For the same molecule, the residual activity (MAPKAPK3 (human)) was 88.1%, the residual activity (CAMK2G (human)) was 96.6% and the residual activity (DCLK2 (human)) was 88.3%. For the same molecule, the residual activity (MARK2 (human)) was 84.9%, the residual activity (MARK4 (human)) was 77.8% and the residual activity (DAPK1 (human)) was 90.9%. It also gave a residual activity (AKT1 (human)) of 93.8%, a residual activity (SRPK3 (human)) of 91% and a residual activity (BLK (human)) of 107%. For the same molecule, the residual activity (DMPK (human)) was 97.1%, the residual activity (STK3 (human)) was 97.1% and the residual activity (PLK2 (human)) was 92.5%. The residual activity (GSK3A (human)) was 97%, the residual activity (WNK2 (human)) was 122% and the residual activity (FES (human)) was 94.3%. For the same molecule, the residual activity (CSNK1G2 (human)) was 98.4%, the residual activity (PDGFRA (human)) was 103% and the residual activity (PIM1 (human)) was 93.9%. It also gave a residual activity (SGK2 (human)) of 95.9%, a residual activity (CDC42BPB (human)) of 94.8% and a residual activity (CAMK2A (human)) of 93.6%. For the same molecule, the residual activity (RIPK2 (human)) was 87.5%, the residual activity (PIM3 (human)) was 90.9% and the residual activity (WEE1 (human)) was 83%. The residual activity (HIPK3 (human)) was 101%, the residual activity (MAP3K10 (human)) was 90% and the residual activity (PRKCG (human)) was 100%. It also gave a residual activity (OXSR1 (human)) of 91.2%, a residual activity (CDK3 CCNE1 (human)) of 109% and a residual activity (LTK (human)) of 75.4%. The residual activity (PNCK (human)) was 96.8%, the residual activity [2] was 102% and the residual activity (KDR (human)) was 81.3%.

In the case of `COc1cc2ncnc(Nc3ccc(O)c(Br)c3)c2cc1OC`, the residual activity (PBK (human)) is reported as 101%, the residual activity [1] is reported as 96.5% and the residual activity (JAK2 JH1 JH2 (human)) is reported as 95%. For the same molecule, the residual activity (MAPK12 (human)) was 92.8%, the residual activity (PTK2 (human)) was 99.5% and the residual activity (KIT (human)) was 97.3%. The residual activity (PKN2 (human)) was 97.2%, the residual activity (FLT3 (human)) was 6.34% and the residual activity (PIM2 (human)) was 94.1%. It also gave a residual activity (MAPKAPK3 (human)) of 96.2%, a residual activity (CAMK2G (human)) of 95.2% and a residual activity (DCLK2 (human)) of 101%. It also gave a residual activity (MARK2 (human)) of 94.5%, a residual activity (MARK4 (human)) of 92.4% and a residual activity (DAPK1 (human)) of 92%. The residual activity (AKT1 (human)) was 94%, the residual activity (SRPK3 (human)) was 92.4% and the residual activity (BLK (human)) was 83.8%. For the same molecule, the residual activity (DMPK (human)) was 101%, the residual activity (STK3 (human)) was 89.6% and the residual activity (PLK2 (human)) was 104%. It also gave a residual activity (GSK3A (human)) of 131%, a residual activity (WNK2 (human)) of 102% and a residual activity (FES (human)) of 94.9%. It also gave a residual activity (CSNK1G2 (human)) of 96.4%, a residual activity (PDGFRA (human)) of 88.9% and a residual activity (PIM1 (human)) of 75.5%. The residual activity (SGK2 (human)) was 95.1%, the residual activity (CDC42BPB (human)) was 98% and the residual activity (CAMK2A (human)) was 98%. It also gave a residual activity (RIPK2 (human)) of 36.7%, a residual activity (PIM3 (human)) of 73.3% and a residual activity (WEE1 (human)) of 92.5%. The residual activity (HIPK3 (human)) was 67.7%, the residual activity (MAP3K10 (human)) was 98.2% and the residual activity (PRKCG (human)) was 94.1%. For the same molecule, the residual activity (OXSR1 (human)) was 98.8%, the residual activity (CDK3 CCNE1 (human)) was 93.5% and the residual activity (LTK (human)) was 5.44%. The residual activity (PNCK (human)) was 103%, the residual activity [2] was 95.7% and the residual activity (KDR (human)) was 69.6%.

`O=C1NC(=O)c2cc(Nc3ccc(F)cc3)c(Nc3ccc(F)cc3)cc21` showed a residual activity (PBK (human)) of 88.4%, a residual activity [1] of 80.6% and a residual activity (JAK2 JH1 JH2 (human)) of 94.6%. It also gave a residual activity (MAPK12 (human)) of 93.6%, a residual activity (PTK2 (human)) of 96% and a residual activity (KIT (human)) of 97.2%. It also gave a residual activity (PKN2 (human)) of 102%, a residual activity (FLT3 (human)) of 91.5% and a residual activity (PIM2 (human)) of 98.6%. For the same molecule, the residual activity (MAPKAPK3 (human)) was 95.9%, the residual activity (CAMK2G (human)) was 101% and the residual activity (DCLK2 (human)) was 100%. The residual activity (MARK2 (human)) was 98.2%, the residual activity (MARK4 (human)) was 98.2% and the residual activity (DAPK1 (human)) was 81.3%. For the same molecule, the residual activity (AKT1 (human)) was 94.8%, the residual activity (SRPK3 (human)) was 98% and the residual activity (BLK (human)) was 94.3%. It also gave a residual activity (DMPK (human)) of 108%, a residual activity (STK3 (human)) of 90.7% and a residual activity (PLK2 (human)) of 99.6%. The residual activity (GSK3A (human)) was 88.2%, the residual activity (WNK2 (human)) was 110% and the residual activity (FES (human)) was 99.5%. The residual activity (CSNK1G2 (human)) was 97.5%, the residual activity (PDGFRA (human)) was 101% and the residual activity (PIM1 (human)) was 81.8%. The residual activity (SGK2 (human)) was 99.7%, the residual activity (CDC42BPB (human)) was 100% and the residual activity (CAMK2A (human)) was 103%. The residual activity (RIPK2 (human)) was 95%, the residual activity (PIM3 (human)) was 105% and the residual activity (WEE1 (human)) was 99.6%. For the same molecule, the residual activity (HIPK3 (human)) was 95.3%, the residual activity (MAP3K10 (human)) was 90.6% and the residual activity (PRKCG (human)) was 102%. For the same molecule, the residual activity (OXSR1 (human)) was 101%, the residual activity (CDK3 CCNE1 (human)) was 98.9% and the residual activity (LTK (human)) was 99.7%. The residual activity (PNCK (human)) was 97.3%, the residual activity [2] was 103% and the residual activity (KDR (human)) was 97.9%.

With `O=C1NC(=O)c2c1c1c3ccccc3[nH]c1c1[nH]c3cc(Br)ccc3c21` the residual activity (PBK (human)) was 86.3%, the residual activity [1] was 81.1% and the residual activity (JAK2 JH1 JH2 (human)) was 95.8%. It also gave a residual activity (MAPK12 (human)) of 100%, a residual activity (PTK2 (human)) of 91.8% and a residual activity (KIT (human)) of 128%. It also gave a residual activity (PKN2 (human)) of 88.7%, a residual activity (FLT3 (human)) of 8.19% and a residual activity (PIM2 (human)) of 44.6%. It also gave a residual activity (MAPKAPK3 (human)) of 118%, a residual activity (CAMK2G (human)) of 99.5% and a residual activity (DCLK2 (human)) of 87.2%. It also gave a residual activity (MARK2 (human)) of 40.4%, a residual activity (MARK4 (human)) of 38.7% and a residual activity (DAPK1 (human)) of 73.5%. It also gave a residual activity (AKT1 (human)) of 101%, a residual activity (SRPK3 (human)) of 89.2% and a residual activity (BLK (human)) of 83.9%. For the same molecule, the residual activity (DMPK (human)) was 104%, the residual activity (STK3 (human)) was 55.8% and the residual activity (PLK2 (human)) was 93.7%. For the same molecule, the residual activity (GSK3A (human)) was 33.9%, the residual activity (WNK2 (human)) was 92.1% and the residual activity (FES (human)) was 88.1%. The residual activity (CSNK1G2 (human)) was 89.5%, the residual activity (PDGFRA (human)) was 97.6% and the residual activity (PIM1 (human)) was 8.84%. For the same molecule, the residual activity (SGK2 (human)) was 68.5%, the residual activity (CDC42BPB (human)) was 84.1% and the residual activity (CAMK2A (human)) was 78.3%. It also gave a residual activity (RIPK2 (human)) of 99.6%, a residual activity (PIM3 (human)) of 4.69% and a residual activity (WEE1 (human)) of 74.6%. For the same molecule, the residual activity (HIPK3 (human)) was 93.3%, the residual activity (MAP3K10 (human)) was 70.4% and the residual activity (PRKCG (human)) was 76.6%. The residual activity (OXSR1 (human)) was 95.8%, the residual activity (CDK3 CCNE1 (human)) was 88.1% and the residual activity (LTK (human)) was 89.9%. The residual activity (PNCK (human)) was 99.4%, the residual activity [2] was 47.6% and the residual activity (KDR (human)) was 67.9%.
